Measured values: paper PMC8217813, “Bridging Computational Vaccinology and Vaccine Development Through Systematic Identification, Characterization, and Downselection of Conserved and Variable Circumsporozoite Protein CD4 T Cell Epitopes From Diverse Plasmodium falciparum Strains” (Frontiers in Immunology, 2021)
Where two headings read alike, the source gives them in different places. Peptide text beside a SMILES is read from it.

Target: T1, HLA A*0101 (Homo sapiens, UniProt P04439, A114D/A174V/A182V/D101N/D185E/E176A/E190D/L180R/Q94H/R68K/S129P/T187R/V100A/V91M/W191G)
T1 construct: Pure Protein, LLC (ran the assay)
Assay: biochemical
Format: binding

[1] = allele A0101, cell-free competition with fluorescently labeled control peptide, fluorescence polarization at 72 hours, read-out: IC50

CC[C@H](C)[C@H](NC(=O)[C@H](Cc1c[nH]cn1)NC(=O)[C@H](CCCCN)NC(=O)[C@H](CC(=O)O)NC(=O)[C@H](CO)NC(=O)[C@@H]1CCCN1)C(=O)N[C@@H](CCCCN)C(=O)N[C@@H](CCC(=O)O)C(=O)N[C@@H](Cc1ccc(O)cc1)C(=O)O [CL1-62] (H-PSDKHIKEY-OH)
IC50 [1]: 24.8 µM

CC(C)[C@H](NC(=O)[C@@H](N)CC(N)=O)C(=O)N[C@@H](CC(=O)O)C(=O)N[C@@H](CCC(=O)O)C(=O)N[C@@H](CC(N)=O)C(=O)N[C@@H](C)C(=O)N[C@@H](CC(N)=O)C(=O)N[C@@H](C)C(=O)N[C@@H](CC(N)=O)C(=O)N[C@@H](CC(N)=O)C(=O)O [Cluster 292_CVX337] (H-NVDENANANN-OH)
IC50 [1]: 667 µM

CC[C@H](C)[C@H](NC(=O)[C@H](Cc1c[nH]cn1)NC(=O)[C@H](CCCCN)NC(=O)[C@H](CC(=O)O)NC(=O)[C@H](CO)NC(=O)[C@@H]1CCCN1)C(=O)N[C@H](C(=O)N[C@@H](CCC(=O)O)C(=O)N[C@@H](Cc1ccc(O)cc1)C(=O)O)[C@@H](C)O [Cluster 311_ICS2] (H-PSDKHITEY-OH)
IC50: 2.67 µM

CC[C@H](C)[C@H](NC(=O)[C@H](Cc1c[nH]cn1)NC(=O)[C@H](CCCCN)NC(=O)[C@H](CC(=O)O)NC(=O)[C@H](CO)NC(=O)[C@@H]1CCCN1)C(=O)N[C@@H](CCC(=O)O)C(=O)N[C@@H](CCC(N)=O)C(=O)N[C@@H](Cc1ccc(O)cc1)C(=O)O [Cluster 311_ICS7] (H-PSDKHIEQY-OH)
IC50: 2 µM

CC(C)[C@H](NC(=O)[C@H](CO)NC(=O)[C@H](CS)NC(=O)[C@@H]1CCCN1C(=O)[C@H](CO)NC(=O)[C@H](Cc1c[nH]c2ccccc12)NC(=O)[C@H](CCC(=O)O)NC(=O)[C@@H](NC(=O)[C@@H](N)CO)[C@@H](C)O)C(=O)O [Cluster 328_3D7] (H-STEWSPCSV-OH)
IC50 [1]: 3.18 µM

CC(C)C[C@H](NC(=O)[C@H](CCC(N)=O)NC(=O)[C@H](CC(=O)O)NC(=O)[C@H](CCCCN)NC(=O)[C@@H]1CCCN1C(=O)[C@H](CCCCN)NC(=O)[C@H](CC(=O)O)NC(=O)[C@H](C)NC(=O)[C@@H](N)CO)C(=O)N[C@@H](CC(=O)O)C(=O)O [Cluster 350_CVX65] (H-SADKPKDQLD-OH)
IC50 [1]: 8.97 µM
